As usually defined, the IC50 is the concentration needed to halve the response being measured. Read a high IC50 as lower potency.

The record followed here is ChEMBL document CHEMBL1153399, “Design, synthesis and SAR studies of tripeptide analogs with the scaffold 3-phenylpropane-1,2-diamine as aminopeptidase N/CD13 inhibitors” (Bioorg Med Chem, 2009).

SMILES strings stand for the structures.

One experiment addresses T1, Aminopeptidase N (Sus scrofa, UniProt P15145).
T1 sequence (P15145 whole entry): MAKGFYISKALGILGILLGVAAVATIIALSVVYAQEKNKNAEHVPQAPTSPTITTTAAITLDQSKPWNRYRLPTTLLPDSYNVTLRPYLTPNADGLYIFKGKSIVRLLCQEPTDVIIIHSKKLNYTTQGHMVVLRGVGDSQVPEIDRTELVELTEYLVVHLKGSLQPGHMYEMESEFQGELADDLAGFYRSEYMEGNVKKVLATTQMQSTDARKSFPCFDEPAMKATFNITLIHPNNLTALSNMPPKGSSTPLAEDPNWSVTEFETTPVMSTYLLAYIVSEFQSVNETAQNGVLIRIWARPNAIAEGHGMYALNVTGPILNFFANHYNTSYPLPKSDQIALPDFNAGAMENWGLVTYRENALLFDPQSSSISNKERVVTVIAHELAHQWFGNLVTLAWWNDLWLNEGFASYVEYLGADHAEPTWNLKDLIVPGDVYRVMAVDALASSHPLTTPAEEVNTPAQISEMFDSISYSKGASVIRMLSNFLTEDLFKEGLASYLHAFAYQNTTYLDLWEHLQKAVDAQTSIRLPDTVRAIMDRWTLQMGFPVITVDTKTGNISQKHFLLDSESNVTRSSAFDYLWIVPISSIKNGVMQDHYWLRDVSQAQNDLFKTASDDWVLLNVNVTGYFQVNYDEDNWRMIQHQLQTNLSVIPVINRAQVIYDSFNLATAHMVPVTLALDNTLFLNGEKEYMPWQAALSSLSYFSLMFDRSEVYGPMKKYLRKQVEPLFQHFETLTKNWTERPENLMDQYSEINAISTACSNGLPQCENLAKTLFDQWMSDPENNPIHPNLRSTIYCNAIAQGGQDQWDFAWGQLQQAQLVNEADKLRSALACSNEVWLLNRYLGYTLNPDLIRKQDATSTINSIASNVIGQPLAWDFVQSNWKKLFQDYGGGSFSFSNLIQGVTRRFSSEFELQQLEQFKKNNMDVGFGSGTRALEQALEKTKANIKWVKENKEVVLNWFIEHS
Briefly: Inhibition of pig kidney microsomal APN.

Another experiment deals with HL-60. Briefly: Cytotoxicity against human HL60 cells after 48 hrs by MTT assay. In kind it is functional, cell-based. Conditions: HL-60, 48 h. (Tetrazolium dyes change colour on reduction, which living cells bring about.)

The compound `CC(C)C[C@H](NC(=O)N[C@@H](Cc1ccccc1)C(=O)NC[C@H](N)Cc1ccccc1)C(=O)O` came in with an IC50 at Aminopeptidase N of 181 µM.
In turn, `N[C@@H](CNC(=O)[C@H](Cc1ccccc1)NC(=O)CCCCl)Cc1ccccc1` showed an IC50 on Aminopeptidase N of 693 µM.
On to `CSCC[C@H](NC(=O)N[C@@H](CS)C(=O)NC[C@H](N)Cc1ccccc1)C(=O)O`, for which the IC50 was 16.5 µM against Aminopeptidase N and 1180 µM with HL-60.
Take `N[C@@H](CNC(=O)[C@H](Cc1ccccc1)NC(=O)c1ccc([N+](=O)[O-])cc1)Cc1ccccc1`: the concentration for half-maximal inhibition (IC50) at Aminopeptidase N stood at 1390 µM. This lies in the millimolar range.
Take `NCCCC[C@H](NC(=O)N[C@@H](Cc1ccccc1)C(=O)NC[C@H](N)Cc1ccccc1)C(=O)O`: the IC50 on Aminopeptidase N was 89.5 µM; in the experiment on HL-60, 1490 µM.
Taken in the same sequence, the figures for `CSCC[C@H](NC(=O)N[C@@H](Cc1ccccc1)C(=O)NC[C@H](N)Cc1ccccc1)C(=O)O` were 8.8 µM and 270 µM.
In turn, `NCCC[C@H](NC(=O)N[C@@H](CS)C(=O)NC[C@H](N)Cc1ccccc1)C(=O)O` gave an IC50 against Aminopeptidase N of 33.2 µM.
For the compound `N[C@@H](CNC(=O)[C@H](CS)NC(=O)N[C@@H](Cc1ccccc1)C(=O)O)Cc1ccccc1`, the half-inhibitory concentration (IC50) is 9.8 µM against Aminopeptidase N and 1060 µM in the experiment with HL-60.
Consider `N[C@@H](CNC(=O)[C@H](CS)NC(=O)NCC(=O)O)Cc1ccccc1`, for which the IC50 at Aminopeptidase N worked out at 174 µM.
On to `NCCCCCC(=O)N[C@@H](CS)C(=O)NC[C@H](N)Cc1ccccc1`, for which the IC50 on Aminopeptidase N is 202 µM.
Still for that read-out and setting: the same measure for `CC(C)[C@H](NC(=O)N[C@@H](Cc1ccccc1)C(=O)NC[C@H](N)Cc1ccccc1)C(=O)O`: 58.5 µM.
On the same count and under the same terms, for `N[C@@H](CNC(=O)[C@H](Cc1ccccc1)NC(=O)c1cc([N+](=O)[O-])cc([N+](=O)[O-])c1)Cc1ccccc1` the value was 277 µM; for `N[C@@H](CNC(=O)[C@H](Cc1ccccc1)NC(=O)c1ccc(Cl)cc1Cl)Cc1ccccc1`, 2260 µM; for `COc1ccc(C(=O)N[C@@H](Cc2ccccc2)C(=O)NC[C@H](N)Cc2ccccc2)cc1`, 174 µM.
On the same count and under the same terms, the same measure for `CC(C)C[C@H](NC(=O)N[C@@H](Cc1ccc(O)cc1)C(=O)O)C(=O)NC[C@H](N)Cc1ccccc1`: 107 µM.
In turn, `N[C@@H](CNC(=O)[C@H](Cc1ccccc1)NC(=O)N[C@H](CS)C(=O)O)Cc1ccccc1` yielded an IC50 against Aminopeptidase N of 49.2 µM.
Same read-out and setting: for `CC(C)C[C@H](NC(=O)NCC(=O)O)C(=O)NC[C@H](N)Cc1ccccc1` the value was 3240 µM; for `N[C@@H](CNC(=O)[C@H](CS)NC(=O)c1ccc(Cl)cc1Cl)Cc1ccccc1`, 1050 µM.
Still for that read-out and setting: the same measure for `CC[C@H](C)[C@H](NC(=O)N[C@@H](CC(C)C)C(=O)NC[C@H](N)Cc1ccccc1)C(=O)O`: 148 µM; for `CC(C)C[C@H](NC(=O)N[C@@H](C)C(=O)O)C(=O)NC[C@H](N)Cc1ccccc1`: 522 µM; for `CC(C)C[C@H](NC(=O)CCCCCN)C(=O)NC[C@H](N)Cc1ccccc1`: 1460 µM.
On the same count and under the same terms, the same measure for `NCCCCCC(=O)N[C@@H](Cc1ccccc1)C(=O)NC[C@H](N)Cc1ccccc1`: 1540 µM.
As to `NCCCC[C@H](NC(=O)N[C@@H](CS)C(=O)NC[C@H](N)Cc1ccccc1)C(=O)O`, the IC50 on Aminopeptidase N worked out at 8.6 µM; in the experiment with HL-60, 290 µM.
Taken in the same sequence, the figures for `CC(C)C[C@H](NC(=O)N[C@@H](CS)C(=O)NC[C@H](N)Cc1ccccc1)C(=O)O` were 45 µM and 2660 µM.
Taken in the same sequence, the figures for `N[C@@H](CNC(=O)[C@H](CS)NC(=O)N[C@H](CS)C(=O)O)Cc1ccccc1` were 10.3 µM and 540 µM.
At Aminopeptidase N, `N[C@@H](CNC(=O)[C@H](Cc1ccccc1)NC(=O)CCc1ccccc1)Cc1ccccc1` registered an IC50 of 366 µM.
Same read-out and setting: the same measure for `CC[C@H](C)[C@H](NC(=O)N[C@@H](Cc1ccccc1)C(=O)NC[C@H](N)Cc1ccccc1)C(=O)O`: 158 µM; for `CC[C@H](C)[C@H](NC(=O)N[C@@H](CS)C(=O)NC[C@H](N)Cc1ccccc1)C(=O)O`: 14.8 µM; for `CC(C)C[C@H](NC(=O)N[C@@H](CC(C)C)C(=O)NC[C@H](N)Cc1ccccc1)C(=O)O`: 142 µM.
The same measure, in the same setting: the same measure for `CSCC[C@H](NC(=O)N[C@@H](CC(C)C)C(=O)NC[C@H](N)Cc1ccccc1)C(=O)O`: 30.4 µM; for `CC(C)[C@H](NC(=O)N[C@@H](CS)C(=O)NC[C@H](N)Cc1ccccc1)C(=O)O`: 58.8 µM.
